The test system of one test is 3×3 ILL. As to the kind of experiment: 2DCS selection of microarray-immobilized compounds with 32P-labeled 3×3 ILL, Hit-StARTS analysis of RNA-seq. The test is classed as binding. Conditions: Zobs >4. As for the experimental part: The interaction landscape for the ten representative DEL compounds emerging from the FACS screen were then defined by 2DCS (22). In 2DCS, small molecules are site-specifically conjugated to a microarray surface and then probed for binding to an RNA library under highly stringent conditions (FIGS. 2-B & S6). That is, the array is co-incubated with a radioactively labeled RNA library and an excess of competitor oligonucleotides that mimic regions common to all library members. […] To enable site-specific immobilization of compounds 1-10, a C-terminal alkyne handle was installed for CuAAC click (30) coupling to azide-displaying array surfaces. Installation of the alkyne was accomplished by coupling of bromoacetic acid onto rink amide resin followed by nucleophilic displacement with propargylamine prior to the synthesis of the SPDEL compounds (FIG. 2A).
All ten compounds bound to the 3×3 ILL under the highly stringent conditions described above, almost all dose-dependently (FIG. 2B). The RNAs bound to each small molecule were harvested, reverse transcribed into DNA, and sequenced by RNA-seq. The resulting data set was statistically analyzed by using High Throughput Structure-Activity Relationships Through Sequencing (Hit-StARTS) (31) in which the relative frequency of each selected RNA is compared to the frequency of that RNA in the starting library (pooled population comparison). (31) The statistical significance of the enrichment of selected RNAs is quantified by Zobs, which correlates with affinity and selectivity. (31) Here, a cut-off of Zobs >4 was employed, which was empirically determined from measured affinities via evaluation of compound 9 binding with potential RNA motifs extracted from the 2DCS (FIGS. 2-B, 13, & 14). […] This cut-off afforded, on average, 60±40 (range: 6-155) preferred, or privileged, RNA 3D folds for each compound. Compound 6 bound to largest number of RNA targets (n=155) while compound 9 bound the fewest (n=6) (FIG. 14). […]

For a further test, the system named is miR-24-2. As to the kind of experiment: RT-qPCR of mature miR-24-2 in MDA-MB-231 cells. The test is classed as cell-based, human. As to the method:
Cell lines. Compounds were tested in MDA-MB-231 TNBC cells (HTB-26, ATCC), LNCaP metastatic prostate cancer cells (gifted from Junli Luo lab), MCF-7 (HTB-22, ATCC) breast cancer cells, HeLa cervical adenocarcinoma cells (CCL-2, ATCC), and MCF-10a, a model of healthy breast epithelial cells (CRL-10317, ATCC).
Cell culture and compound treatment. All cells were maintained at 37° C. with 5% CO2. MDA-MB-231 and LNCaP cells were cultured in RPMI 1640 medium with L-glutamine & 25 mM HEPES (Corning) supplemented with 10% (v/v) fetal bovine serum (FBS; Sigma) and 1× (v/v) Antibiotic-Antimycotic solution (Corning). MCF-7 and HeLa cells were cultured in DMEM medium with 4.5 g/L glucose (Corning), supplemented with 10% FBS, 1× (v/v) Glutagro (Corning), and 1× (v/v) Antibiotic-Antimycotic solution. […]
Analysis of mRNA abundance: Each cell line was grown as a monolayer in 12- or 24-well plates and treated as described in “Cell culture and compound treatment”. […] Relative abundance of mature miRNAs was calculated by normalizing to RNU6, and relative abundance for pri-miRNAs and mRNAs was calculated by normalizing to 18S ribosomal RNA, using the AAC, method. […]

For `C#CCN(CC(N)=O)C(=O)C[C@H](Cc1c[nH]c2ccccc12)NC(=O)[C@@H]1C[C@H](NC(=O)Cn2c(=O)[nH]c3ccccc3c2=O)CN1` [Compound 9], the “number of RNA motifs bound that are unique to the compound” value with 3×3 ILL was 2. In addition, in the test on miR-24-2, the “effect on levels of mature miR-24-2” value was “no effect”.

The values are drawn from US20250051762A1, “PLATFORM USING DNA-ENCODED SMALL MOLECULE LIBRARIES AND RNA SELECTION TO DESIGN SMALL MOLECULES THAT TARGET RNA” (University of Florida Research Foundation, Incorporated, priority 2021, published 2025).
